Measurements reported in patent US20040014634A1, “Thieno[2,3-d]pyrimidinediones and their use as pharmaceuticals” (priority 2000, published 2004).
Structures can show the parent of a compound that is named as a salt.

| SMILES | melting point |
| --- | --- |
| CC(C)Cn1c(=O)n(C)c(=O)c2c(Sc3nccs3)c(C(=O)c3ccnc4ccccc34)sc21 [Example 48, 3-Methyl-1-(2-methylpropyl)-6-(4-quinolinylcarbonyl)-5-(1,3-thiazol-2-ylthio)-thieno[2,3-d]pyrimidine-2,4(1H,3H)-dione] | 166.8 to 167.6 °C |
| CC(C)Cn1c(=O)n(C)c(=O)c2c(Sc3nccs3)c(Cc3ccccc3C(F)(F)F)sc21 [Example 29, 3-Methyl-1-(2-methylpropyl)-5-(2-thiazolylthio)-6-[[2-(trifluoromethyl)-phenyl]methyl]-thieno[2,3-d]pyrimidine-2,4(1H,3H)-dione] | 141 to 144 °C |
| CC(C)Cn1c(=O)n(C)c(=O)c2c(S(=O)(=O)c3nc[nH]n3)c(C(O)c3ccccc3C(F)(F)F)sc21 (centres unmarked) [Example 37, 6-[Hydroxy[2-(trifluoromethyl)phenyl]methyl]-3-methyl-1-(2-methylpropyl)-5-(1H-1,2,4-triazol-3-ylsulfonyl)-thieno[2,3-d]pyrimidine-2,4(1H,3H)-dione] | 198 to 202 °C |
| CC(C)Cn1c(=O)n(C)c(=O)c2c(S(=O)(=O)c3nncs3)c(Cc3ccccc3C(F)(F)F)sc21 [Example 39, 3-Methyl-1-(2-methylpropl)-5-(1,3,4-thiadiazol-2-ylsulfonyl)-6-[2-(trifluoromethyl)benzyl]-thieno[2,3-d]pyrimidine-2,4(1H,3H)-dione] | 148 to 149 °C |
| CC(C)Cn1c(=O)n(C)c(=O)c2c(Sc3nncs3)c(Cc3ccccc3C(F)(F)F)sc21 [Example 32, 3-Methyl-1-(2-methylpropyl)-5-(1,3,4-thiadiazol-2-ylthio)-6-[2-(trifluoromethyl)benzyl]-thieno[2,3-d]pyrimidine-2,4(1H,3H)dione] | 169 to 170 °C |
| CC(C)Cn1c(=O)n(C)c(=O)c2c(Sc3n[nH]c(=O)[nH]3)c(Cc3ccccc3C(F)(F)F)sc21 [Example 41, 3-Methyl-1-(2-methylpropyl)-5-[(5-oxo-4,5-dilydro-1H-1,2,4-triazol-3-yl)thio]-6-[2-(trifluoromethyl)phenylmethyl]-thieno[2,3-d]pyrimidine-2,4(1H,3H)-dione] | 205 to 211 °C |
| CC(C)Cn1c(=O)n(C)c(=O)c2c(Sc3nccs3)c(C(O)c3ccnc4ccccc34)sc21 (centres unmarked) [Example 49, 6-[Hydroxy-(4-quinolinyl)-methyl]-3-methyl-1-(2-methylpropyl)-5-(1,3-thiazol-2-ylthio)-thieno[2,3-d]pyrimidine-2,4(1H,3H)-dione] | 182.8 to 184 °C |
| CC(C)Cn1c(=O)n(C)c(=O)c2c(Sc3cccs3)c(CN3C(=O)c4ccccc4C3=O)sc21 [Example 54, 6-[(1,3-Dihydro-1,3-dioxo-2H-isoindol-2-yl)methyl]-3-methyl-1-(2-methylpropyl)-5-(2-thienylthio)-thieno[2,3-d]pyrimidine-2,4(1H,3H)-dione] | 163 °C |
| CC(C)Cn1c(=O)n(C)c(=O)c2c(Sc3nc[nH]n3)c(Cc3ccccc3C(F)(F)F)sc21 [Example 13, 3-Methyl-1-(2-methylpropyl)-5-(1H-1,2,4-triazol-3-ylthio)-6-[[2-(trifluoromethyl)phenyl]methyl]-thieno[2,3-d]pyrimidine-2,4(1H,3H)-dione] | 186 to 187 °C |
| Cc1nc(Sc2c(C(=O)c3ccccc3C(F)(F)F)sc3c2c(=O)n(C)c(=O)n3CC(C)C)n[nH]1 [Example 18] | 220 to 222 °C |
| CC(C)Cn1c(=O)n(C)c(=O)c2c(Sc3nc(Br)n[nH]3)c(Cc3ccccc3C(F)(F)F)sc21 [Example 40] | 174 to 175 °C |
| Cc1n[nH]c(Sc2c(Cc3ccccc3C(F)(F)F)sc3c2c(=O)n(C)c(=O)n3CC(C)C)n1 (as salt: hydrochloride) [Example 30, 3-Methyl-1-(2-methylpropyl)-5-[(5-methyl-1H-1,2,4-triazol-3yl)thiol-6-[[2-(trifluoromethyl)phenyl]methyl]-thieno[2,3-d]pyrimidine-2,4(1H,3H)-dione dihydrochloride] | 154 °C |
| CC(C)Cn1c(=O)n(C)c(=O)c2c(Sc3ncc[nH]3)c(C(=O)c3ccccc3C(F)(F)F)sc21 [Example 22, 5-(1H-Imidazol-2-ylthio)-3-methyl-1-(2-methylpropyl)-6-[2-(trifluoromethyl)bezoyl]-thieno[2,3-d]pyrimidine-2,4(1H,3H)-dione] | 123 to 127 °C |
| CC(C)Cn1c(=O)n(C)c(=O)c2c(Sc3ncc[nH]3)c(Cc3ccccc3C(F)(F)F)sc21 [Example 31, 5-(1H-Imidazol-2-ylthio)-3-methyl-1-(2-methylpropyl)-6-[[2-(trifluoromethyl)phenyl]methyl]-thieno[2,3-d]pyrimidine-2,4(1H,3H)-dione] | 221 to 225 °C |
| CC(C)Cn1c(=O)n(C)c(=O)c2c(Sc3nnc[nH]3)c(Cc3csc4ccccc34)sc21 [Example 50, 6-(1-Benzothien3-ylmethyl)-3-methyl-1-(2-methylpropyl)-5-(4H-1,2,4-triazol-3-ylthio)-thieno[2,3-d]pyrimidine-2,4(1H,3H)-dione] | 237 to 238.2 °C |
| CC(C)Cn1c(=O)n(C)c(=O)c2c(Sc3cccs3)c(Cn3cnc4ccccc43)sc21 [Example 51] | 198 °C |
| CC(C)Cn1c(=O)n(C)c(=O)c2c(Sc3nnc(N)s3)c(Cc3ccccc3C(F)(F)F)sc21 [Example 33, 5-[(5-Amino-1,3,4-thiadiazol-2-yl)thio]-3-methyl-1-(2-methylpropyl)-6-[2-(trifluoromethyl)benzyl]-thieno[2,3-d]pyrimidine-2,4(1H,3H)-dione] | 236 to 237 °C |
